Data on two compounds can be found in patent US6965035B1, “Compacted forms of halogenated hydantoins” (priority 2002, dated 2005).

What all share (format): physicochemical
A short description of data set [1]: Dissolution of granules or tablets in swimming pool skimmer basket under recirculated pool water. The source says: A swimming pool skimmer basket was divided into two halves by means of a simple plastic partition placed across the basket diameter. One half of the basket had 50 grams of pure (wax-free) DBDMH granules placed in it. In the other half of the skimmer basket was placed 50 grams of DBDMH/1 wt % MPP-611 wax granules. […] The basket, containing both sets of granules, was introduced to the skimmer of an above-ground pool. Swimming pool water was pumped past the granules in the skimmer basket by means of the pool recirculation pump. The flow rate was around 30 gallons per minute (gpm) and the water temperature was 60° F. (15.5° C.). After 6 hours, the pump was turned off and the skimmer basket containing the partially-dissolved granules was removed. The granules were removed from their respective halves of the skimmer basket and placed in crystallizing dishes to dry overnight. Each set of granules was reweighed. The weight of the undissolved portion was subtracted from the initial weight, and the amount dissolved (the difference) was expressed in terms of % dissolved (the relative dissolution rate). Table 5 lists the relative amount dissolved for both sets of granules. The procedures described in Example 4 were repeated using pure (wax-free) DBDMH granules and DBDMH/2 wt % MPP-611 wax granules. The water temperature was 66° F. (19° C.). Table 5 lists the relative amount dissolved for both sets of granules. The skimmer basket setup described in Example 4 was used. In one half of the basket, tablets of DBDMH/3 wt % MPP-611 wax (5×24 g; total weight, 120 g; each tablet is 1 inch in diameter) were placed an equal distance apart from each other. In the other half of the basket, tablets of pure (wax-free) 1,3-bromochloro-5,5-dimethylhydantoin (BCDMH; 5×20 g; total weight, 100 g) were similarly arranged. Both sets of tablets were one inch in diameter, so the effective surface area exposed was approximately the same for each set of tablets. The skimmer basket containing the tablets was placed into the skimmer of an above-ground swimming pool. Pool water was pumped past the tablets in the skimmer basket by means of the pool recirculation pump. The flow rate was around 30 gpm, the water temperature was 82.1° F. (27.8° C.), and water was recirculated for 16 hours. The tablets were dried and re-weighed. The weight of the undissolved portion was subtracted from the initial weight, and the amount dissolved (the difference) was expressed in terms of % dissolved (the relative dissolution rate). The amount of product dissolved was 75.5 g for the BCDMH tablets and 13.4 g for the DBDMH/3 wt % MPP-611 wax tablets. The BCDMH tablets dissolved at a rate 5.6 times faster (based on weight dissolved) than the DBDMH/3 wt % MPP-611 wax tablets. Based on the respective solubility of wax-free DBDMH and BCDMH powders, a relative dissolution factor of about 2 would have been expected (with the BCDMH dissolving faster).

Data set [2] can be described thus: Peak load tolerance test of granules (Sintech 1/S compression apparatus). The note with it: 3.5–5 mesh cut of granules; average of ten runs; standard deviation in parentheses. As to the method:
To minimize size effects, a 3.5–5 mesh cut of the granulated material was used in this experiment. Peak load tests were performed on DBDMH granules without wax, with 1 wt % wax, and with 2 wt % wax. The wax in both instances was micronized polyethylene wax (MPP-611). Granules of approximately the same size were selected by visual inspection; measurements of the thickness of the granules were not made because of the very irregular shapes of the granules. Peak load tolerance tests were performed utilizing a Sintech® 1/S compression apparatus (MTS Systems Corporation, Edenprairie, Minn.) equipped with Testworks software. The apparatus included a horizontal circular-shaped load cell interfaced with a computer, a digital micrometer also interfaced with the computer, and a vertical screw-driven piston disposed above the load cell and adapted to apply a downward force perpendicular to the load cell. Each granule was placed on its edge on the load cell with the piston in contact with at least a part of the upper edge of the granule. The piston often could not contact the entire upper edge of the granule due the irregular morphology of the granule. […] At the same time, the load cell continuously measured the downward force being applied to the granule, and the input of such measurements was transmitted to the computer. […]

Data set [3] is described as follows: Specific surface area of granules by nitrogen adsorption BET technique. The note with it: 3.5–5 mesh granules, material from recycle compaction (Runs 1–3). The procedure:
To minimize size effects, a 3.5–5 mesh cut of the granulated material was used in this experiment. The material used in Runs 1–3 were from recycle compaction, and the material used in Run 4 was from first-run compaction. The surface area of the granules was determined by the well-known nitrogen adsorption BET technique. The BET technique consists of (1) removing adsorbed gases from the sample with heat and vacuum, (2) adsorbing a mono-layer of nitrogen on the surface at liquid nitrogen temperature, (3) measuring the amount of adsorbed nitrogen, and (4) calculating the total surface area of the sample from an assumed cross-sectional area of nitrogen molecules. The total surface area was divided by the sample weight to yield the specific surface area. Specific surface area is defined as the exposed surface area of 1 gram of the sample tested. A Coulter Model 3100 instrument was used.

Turning to `CC1(C)C(=O)N(Cl)C(=O)N1Br` [BCDMH tablets (no wax), 1,3-bromochloro-5,5-dimethylhydantoin], in data set [1] (1 inch tablets, about 30 gpm, water 82.1° F. (27.8° C.), 16 hours (text Example 6)), the Amount dissolved stood at 75.5%. Further, the “Amount of product dissolved” value in data set [1] (tablets, 5×20 g BCDMH or 5×24 g DBDMH/wax, about 30 gpm, 82.1° F., 16 hours) is recorded as 75.5 g. Further, the “Dissolution rate relative to DBDMH/3 wt % MPP-611 wax tablets (based on weight dissolved)” value in data set [1] (tablets, 82.1° F., 16 hours) was found to be 5.6 times faster.
As for `CC1(C)C(=O)N(Br)C(=O)N1Br` [DBDMH, wax-free, 1,3-dibromo-5,5-dimethylhydantoin], in data set [2], the Average peak load was 11.7 (3.4) lb. Further, the “Surface Area” value in data set [3] worked out at 5.1 m^2/g. In addition, the Amount dissolved in data set [1] (50 g granules >8 U.S. mesh, about 30 gpm, water 60° F. (15.5° C.), 6 hours (text Example 4)) was determined as 44%; in data set [1] (50 g granules, about 30 gpm, water 66° F. (19° C.), 6 hours (text Example 5)), 60%.
